Laboratory results from patent US12559529B2, “NPY2 receptor agonists” (Boehringer Ingelheim International GmbH, priority 2019, dated 2026).
*1 amine or outer side, *2 acyl side, *3 side chain or, on linkers, in order; H or OH if unused. Where a SMILES comes first, the peptide text is derived from it. Side-chain parts run from the residue outwards. The star is where a group is joined. C18 diacid = O=C(O)CCCCCCCCCCCCCCCCC(=O)*; γGlu = O=C(O)[C@H](CCC(=O)[*:2])N[*:1]; Isovaleryl = CC(C)CC(=O)*; AEEA = NCCOCCOCC(=O)O

Biological target: T1, Human Neuropeptide Y2 Receptor (Homo sapiens, UniProt P49146)
T1 construct: purchased CHEMICON HTS066M
T1 sequence (P49146 1-381): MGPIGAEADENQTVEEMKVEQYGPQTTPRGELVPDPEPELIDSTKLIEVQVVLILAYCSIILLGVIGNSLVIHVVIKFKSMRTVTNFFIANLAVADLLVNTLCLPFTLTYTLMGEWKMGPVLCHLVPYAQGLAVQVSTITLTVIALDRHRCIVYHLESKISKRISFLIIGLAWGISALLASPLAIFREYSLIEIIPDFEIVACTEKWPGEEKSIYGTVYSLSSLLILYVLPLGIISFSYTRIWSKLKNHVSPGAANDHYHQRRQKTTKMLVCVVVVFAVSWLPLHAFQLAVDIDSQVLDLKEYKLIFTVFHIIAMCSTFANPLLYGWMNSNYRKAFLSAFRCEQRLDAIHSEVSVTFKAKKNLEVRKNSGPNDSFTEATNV
Test: Radioligand binding competition assay (RLB)
Details: Table 3; human 125I-PYY (1-36) 0.02 nM, Y2 receptor membranes; read-out: Ki
Description: The filtration RLB assay was carried out in 96-well plates in a final volume of 100 μl per well. Freeze-dried test peptides were dissolved in 100% dimethyl sulfoxide (DMSO) to stock solutions of 1 mM and serial dilutions were performed in assay buffer (50 mM HEPES, 5 mM MgCl2, 1 mM CaCl2), pH 7.4) containing 0.2% ovalbumin. […] Next, 80 μL membranes (HTS066M, ChemiSCREEN™ Human Neuropeptide Y2 Receptor Membrane Preparation, CHEMICON) were added to each well to give a final protein concentration of 0.5 μg/well. The plates were sealed and incubated at room temperature for 2 hours in a plate shaker set at 400 rpm. The incubation was stopped by vacuum filtration onto 0.5% poly-ethylene amine (PEI) presoaked GF/C filters using a 96-well FilterMate™ harvester (Perkin Elmer) followed by four washes with 300 μl/well ice-cold wash buffer (50 mM HEPES, 500 mM NaCl, pH7.4). Filter plates were then dried for 60 min at room temperature and the bottom of the plates was sealed with backing tape UniFilter-96. Finally, 50 μl/well scintillation counter cocktail (Microscint20, Packard) was added and the radioactivity was counted in the Packard TopCount NXT scintillation counter. IC50 values (the half maximal inhibitory concentration of the agonist) were calculated by nonlinear regression analysis of sigmoidal dose-response curves.

| Compound | Ki |
| --- | --- |
| CC[C@H](C)[C@H](NC(=O)[C@H](CCC(=O)O)NC(=O)[C@H](CCC(=O)O)NC(=O)[C@@H]1CCCN1C(=O)[C@H](CO)NC(=O)[C@H](C)NC(=O)[C@H](CC(=O)O)NC(=O)[C@H](CCC(=O)O)NC(=O)[C@H](CCC(=O)O)NC(=O)[C@@H]1CCCN1C(=O)[C@H](CCCCNC(=O)COCCOCCNC(=O)COCCOCCNC(=O)CC[C@H](NC(=O)CCCCCCCCCCCCCCCCC(=O)O)C(=O)O)NC(=O)[C@H](CCC(=O)O)NC(=O)[C@@H]1CCCN1C(=O)[C@H](C)NC(=O)CC(C)C)C(=O)N[C@@H](CCC(N)=O)C(=O)N[C@@H](CCCNC(=N)N)C(=O)N[C@@H](Cc1ccc(O)cc1)C(=O)N[C@@H](CCC(=O)O)C(=O)N[C@H](C(=O)N[C@@H](CO)C(=O)N[C@@H](CC(C)C)C(=O)N[C@@H](CCCNC(=N)N)C(=O)N[C@@H](Cc1c[nH]cn1)C(=O)N[C@@H](Cc1ccc(O)cc1)C(=O)N[C@@H](Cc1ccc(O)cc1)C(=O)N[C@@H](CC(N)=O)C(=O)N[C@@H](Cc1c[nH]c2ccccc12)C(=O)N[C@@H](CC(C)C)C(=O)N[C@H](C(=O)N[C@@H](CCCNC(=N)N)C(=O)N[C@@H](CCC(N)=O)C(=O)N[C@@H](CCCNC(=N)N)C(=O)N[C@@H](Cc1ccc(O)cc1)C(N)=O)[C@@H](C)O)C(C)C [Compound 15, N{alpha-4}-(3-methylbutanoyl)-N{epsilon-7}-[2-(2-{2-[2-(2-{2-[(4S)-4-carboxy-4-(17-carboxyheptadecanamido)butanamido]ethoxy}ethoxy)acetamido]ethoxy}ethoxy)acetamido]-[4A,7K,9E,17I,18Q,21E,22V,28Y,30W,31L]hPYY (4-36)] | 2.89 nM |
| CC(C)CC(=O)N[C@@H](C)C(=O)N1CCC[C@H]1C(=O)N[C@@H](CCC(=O)O)C(=O)N[C@@H](CCCCNC(=O)COCCOCCNC(=O)COCCOCCNC(=O)CC[C@H](NC(=O)CCCCCCCCCCCCCCCCC(=O)O)C(=O)O)C(=O)N1CCC[C@H]1C(=O)N[C@@H](CCC(=O)O)C(=O)N[C@@H](CCC(=O)O)C(=O)N[C@@H](CC(=O)O)C(=O)N[C@@H](C)C(=O)N[C@@H](CO)C(=O)N1CCC[C@H]1C(=O)N[C@@H](C)C(=O)N[C@@H](CCC(=O)O)C(=O)N[C@@H](CC(C)C)C(=O)N[C@@H](CCC(N)=O)C(=O)N[C@@H](CCCNC(=N)N)C(=O)N[C@@H](Cc1ccc(O)cc1)C(=O)N[C@@H](Cc1ccc(O)cc1)C(=O)N[C@H](C(=O)N[C@@H](CO)C(=O)N[C@@H](CC(C)C)C(=O)N[C@@H](CCCNC(=N)N)C(=O)N[C@@H](Cc1c[nH]cn1)C(=O)N[C@@H](Cc1ccc(O)cc1)C(=O)N[C@@H](Cc1ccc(O)cc1)C(=O)N[C@@H](CC(N)=O)C(=O)N[C@@H](Cc1c[nH]c2ccccc12)C(=O)N[C@@H](CC(C)C)C(=O)N[C@H](C(=O)N[C@@H](CCCNC(=N)N)C(=O)N[C@@H](CCC(N)=O)C(=O)N[C@@H](CCCNC(=N)N)C(=O)N[C@@H](Cc1ccc(O)cc1)C(N)=O)[C@@H](C)O)C(C)C [Compound 17, N{alpha-4}-(3-methylbutanoyl)-N{epsilon-7}-[2-(2-{2-[2-(2-{2-[(4S)-4-carboxy-4-(17-carboxyheptadecanamido)butanamido]ethoxy}ethoxy)acetamido]ethoxy}ethoxy)acetamido]-[4A,7K,9E,15A,18Q,22V,28Y,30W,31L]hPYY (4-36)] | 0.93 nM |
| CC(C)CC(=O)N[C@@H](C)C(=O)N1CCC[C@H]1C(=O)N[C@@H](CCC(=O)O)C(=O)N[C@@H](CCCCNC(=O)COCCOCCNC(=O)COCCOCCNC(=O)CC[C@H](NC(=O)CCCCCCCCCCCCCCCCC(=O)O)C(=O)O)C(=O)N1CCC[C@H]1C(=O)N[C@@H](CCC(=O)O)C(=O)N[C@@H](CCC(=O)O)C(=O)N[C@@H](CC(=O)O)C(=O)N[C@@H](C)C(=O)N[C@@H](C)C(=O)N1CCC[C@H]1C(=O)N[C@@H](CCC(=O)O)C(=O)N[C@@H](CCC(=O)O)C(=O)N[C@@H](CC(C)C)C(=O)N[C@@H](CCC(N)=O)C(=O)N[C@@H](CCCNC(=N)N)C(=O)N[C@@H](Cc1ccc(O)cc1)C(=O)N[C@@H](Cc1ccc(O)cc1)C(=O)N[C@H](C(=O)N[C@@H](CCC(=O)O)C(=O)N[C@@H](CC(C)C)C(=O)N[C@@H](CCCNC(=N)N)C(=O)N[C@@H](Cc1c[nH]cn1)C(=O)N[C@@H](Cc1ccc(O)cc1)C(=O)N[C@@H](Cc1ccc(O)cc1)C(=O)N[C@@H](CC(N)=O)C(=O)N[C@@H](Cc1c[nH]c2ccccc12)C(=O)N[C@@H](CC(C)C)C(=O)N[C@H](C(=O)N[C@@H](CCCNC(=N)N)C(=O)N[C@@H](CCC(N)=O)C(=O)N[C@@H](CCCNC(=N)N)C(=O)N[C@@H](Cc1ccc(O)cc1)C(N)=O)[C@@H](C)O)C(C)C [Compound 20, N{alpha-4}-(3-methylbutanoyl)-N{epsilon-7}-[2-(2-{2-[2-(2-{2-[(4S)-4-carboxy-4-(17-carboxyheptadecanamido)butanamido]ethoxy}ethoxy)acetamido]ethoxy}ethoxy)acetamido]-[4A,7K,9E,13A,18Q,22V,23E,28Y,30W,31L]hPYY (4-36)] | 2.57 nM |

Further lines, results first:

| Ki | Compound |
| --- | --- |
| 1.29 nM | CC(C)CC(=O)N[C@@H](C)C(=O)N1CCC[C@H]1C(=O)N[C@@H](CCC(=O)O)C(=O)N[C@@H](CCCCNC(=O)COCCOCCNC(=O)COCCOCCNC(=O)CC[C@H](NC(=O)CCCCCCCCCCCCCCCCC(=O)O)C(=O)O)C(=O)N1CCC[C@H]1C(=O)N[C@@H](CCC(=O)O)C(=O)N[C@@H](CCC(=O)O)C(=O)N[C@@H](CC(=O)O)C(=O)N[C@@H](C)C(=O)N[C@@H](C)C(=O)N1CCC[C@H]1C(=O)N[C@@H](CCC(=O)O)C(=O)N[C@@H](CCC(=O)O)C(=O)N[C@@H](CC(C)C)C(=O)N[C@@H](CCC(N)=O)C(=O)N[C@@H](CCC(N)=O)C(=O)N[C@@H](Cc1ccc(O)cc1)C(=O)N[C@@H](Cc1ccc(O)cc1)C(=O)N[C@H](C(=O)N[C@@H](CO)C(=O)N[C@@H](CC(C)C)C(=O)N[C@@H](CCCNC(=N)N)C(=O)N[C@@H](Cc1c[nH]cn1)C(=O)N[C@@H](Cc1ccc(O)cc1)C(=O)N[C@@H](Cc1ccc(O)cc1)C(=O)N[C@@H](CC(N)=O)C(=O)N[C@@H](Cc1c[nH]c2ccccc12)C(=O)N[C@@H](CC(C)C)C(=O)N[C@H](C(=O)N[C@@H](CCCNC(=N)N)C(=O)N[C@@H](CCC(N)=O)C(=O)N[C@@H](CCCNC(=N)N)C(=O)N[C@@H](Cc1ccc(O)cc1)C(N)=O)[C@@H](C)O)C(C)C [Compound 13, N{alpha-4}-(3-methylbutanoyl)-N{epsilon-7}-[2-(2-{2-[2-(2-{2-[(4S)-4-carboxy-4-(17-carboxyheptadecanamido)butanamido]ethoxy}ethoxy)acetamido]ethoxy}ethoxy)acetamido]-[4A,7K,9E,13A,18Q,19Q,22V,28Y,30W,31L]hPYY (4-36)] |
| 0.39 nM | CC(C)CC(=O)N[C@@H](C)C(=O)N1CCC[C@H]1C(=O)N[C@@H](CCC(=O)O)C(=O)N[C@@H](CCCCNC(=O)COCCOCCNC(=O)COCCOCCNC(=O)CC[C@H](NC(=O)CCCCCCCCCCCCCCCCC(=O)O)C(=O)O)C(=O)N1CCC[C@H]1C(=O)N[C@@H](CCC(=O)O)C(=O)N[C@@H](C)C(=O)N[C@@H](CC(=O)O)C(=O)N[C@@H](C)C(=O)N[C@@H](CO)C(=O)N1CCC[C@H]1C(=O)N[C@@H](CCC(=O)O)C(=O)N[C@@H](CCC(=O)O)C(=O)N[C@@H](CC(C)C)C(=O)N[C@@H](CCC(N)=O)C(=O)N[C@@H](CCC(N)=O)C(=O)N[C@@H](Cc1ccc(O)cc1)C(=O)N[C@@H](Cc1ccc(O)cc1)C(=O)N[C@H](C(=O)N[C@@H](CO)C(=O)N[C@@H](CC(C)C)C(=O)N[C@@H](CCCNC(=N)N)C(=O)N[C@@H](Cc1c[nH]cn1)C(=O)N[C@@H](Cc1ccc(O)cc1)C(=O)N[C@@H](Cc1ccc(O)cc1)C(=O)N[C@@H](CC(N)=O)C(=O)N[C@@H](Cc1c[nH]c2ccccc12)C(=O)N[C@@H](CC(C)C)C(=O)N[C@H](C(=O)N[C@@H](CCCNC(=N)N)C(=O)N[C@@H](CCC(N)=O)C(=O)N[C@@H](CCCNC(=N)N)C(=O)N[C@@H](Cc1ccc(O)cc1)C(N)=O)[C@@H](C)O)C(C)C [Compound 19, N{alpha-4}-(3-methylbutanoyl)-N{epsilon-7}-[2-(2-{2-[2-(2-{2-[(4S)-4-carboxy-4-(17-carboxyheptadecanamido)butanamido]ethoxy}ethoxy)acetamido]ethoxy}ethoxy)acetamido]-[4A,7K,9E,10A,18Q,19Q,22V,28Y,30W,31L]hPYY (4-36)] (Isovaleryl-APEK([AEEA-AEEA-γGlu-C18 diacid])PEADASPEELQQYYVSLRHYYNWLTRQRY-NH2) |
